From patent US20100029674A1, “Methods of Using Phosphoantigen for the Treatment of Cancer” (INNATE PHARMA, S.A., priority 2007, published 2010)
Where a name gives a salt, the structure may show the parent alone. Where a SMILES comes first, the peptide text is derived from it.

Tests used:
γ9δ2 T cells = test: Dose range activation of γδ T cells following iv injection of BrHPP (GLP pharmacology studies); format: in vivo, non-human primates
[1] = test system: advanced/metastatic solid tumors; test: Phase I clinical trial: progression free survival; format: in vivo, human
Method: (§1) PHOSPHOST™ (Bromohydrin pyrophosphate, BrHPP) was evaluated in an escalating dose clinical trial in patients with advanced/metastatic solid tumors. The therapeutic regimen and pharmaco-toxicology of BrHPP in combination with low dose of IL-2 have previously been characterized in non human primates. The patients received at least 3 injections of BrHPP 3 weeks apart, concomitant with low dose of IL-2 (1 million IU/m^2/day). Pharmacological response was monitored all along the treatment. Based on the results of the phase I trial, a multicenter phase II study on metastatic RCC patients has been scheduled. The clinical drug product was a 200 mg/vial of lyophilized Phosphostim (expressed in mg equivalent of BrHPP anionic form.). The formulation of Phosphostim was reconstituted immediately prior to use with 2 ml of water for injections to make a 100 mg/ml solution. The reconstituted product was diluted in a total volume of 100 ml of ringer lactate buffer infusion vehicle. Phosphostim was administered intravenously over 1 hour.
The clinical trial was therefore a phase I, single arm, open-label, national, multi-center, dose-escalation trial in sequential cohorts of patients with advanced/metastatic solid tumors.
Patients were sequentially allotted to cohorts of progressively higher dose levels of Phosphostim. […] The objective tumor response was assessed after 3 cycles (i.e., every 9 weeks).

γδ T cells [2] = test: In vitro BrHPP sensitivity test: 8 day culture of peripheral lymphocytes from CML patients undergoing Gleevec therapy, flow cytometry; format: cell-based, human
Method: The study intends to test the sensitivity of γ962 T cells from oncology patients to BrHPP. It aims at identifying cancers and or situations in which a BrHPP treatment would be relevant and those for which it would be less or not beneficial. In brief, a small sample of blood is sufficient to prepare PBMCs and culture in the presence of BrHPP. A result of the level of in vitro amplification of gamma-delta cells by BrHPP can be obtained in about 8 days.
Upon reception of blood, 20 ml blood samples were treated by Ficoll gradient to isolate peripheral lymphocytes, which were then frozen. The lymphocytes were cultured in a 96-well plate (1 million cells/ml) for 8 days in the presence of BrHPP. The percentage of γ962 T cells were then determined by a phenotypic assay (flow cytometry).
In such small scale culture assay, a patient is considered to be responsive to an agonist following 8 days of in vitro stimulation according to two criteria: the percentage of γ962 T cells in culture as well as the rate of amplification of these cells. The amplification rate corresponds to the ratio of number of total γ962 T cells at the end of culture to the total γ962 T cells at the start of culture. The qualitative evaluation of these two criteria was divided into four levels of response, according to the Table 2.
A patient is considered sensitive to BrHPP if the sum of the values of the two criteria is ++ or +++. A classification of 0 or + is considered non-sensitive.

Vγ9Vδ2 T cells = test: Phase I escalating dose clinical trial: amplification of Vγ9Vδ2 T cells by flow cytometry in chemotherapy-treated patients; format: in vivo, human; details: after second administration (with IL-2)
Method: Blood samples (4 ml) were withdrawn into EDTA containing tubes. Tubes were shipped overnight at room temperature (RT) before flow cytometry analyses.
Peripheral lymphocytes were analyzed by flow cytometry on total blood, after triple staining with anti-Vdelta2FITC, anti-CD3PE and anti-CD25PC5 antibodies (Vdelta2-FITC : IMMU389 clone, Immunotech-Beckman-Coulter, Marseilles, France; CD3-PE : UCHTI clone, Immunotech-Beckman-Coulter; CD25PC5 : M-A251 clone, Becton Dickinson, Le Pont de Claix, France).
Briefly, 100 μl patient blood was incubated 15 min at RT with 10 μl anti-Vdelta2-FITC, 10 μl anti-CD3-PE and 10 μl anti-CD25PC5 antibodies. Antibodies were washed with 3 ml 1× PBS, centrifuged for 4 min at 1300 rpm at RT and supernatant was discarded. Red cells were lysed with the OptiLyse B reagent (Immunotech-Beckman-Coulter, Marseilles, France) according to the manufacturer's instructions. At the final step, stained white blood cells were recovered by centrifugation and resuspended in 300 μl 1× PBS+0.2% PFA. Flow cytometry analysis on viable cells was performed on a FacsSCAN apparatus (Becton Dickinson) with the FacsDiva software.
as §1
All patient cohorts received repeated 3-week cycles of Phosphostim alone for the first cycle and Phosphostim in combination with IL-2 for the subsequent cycles. • first cycle: Phosphostim alone, • subsequent cycles: Phosphostim in combination with IL-2
Patients were sequentially allotted to cohorts of progressively higher dose levels of Phosphostim. […] The objective tumor response was assessed after 3 cycles (i.e., every 9 weeks). […]
Drug plasma levels were measured during the first and the second cycles in all patients. […] Biological effect was monitored throughout the trial and studied on PBMC and plasma. […]

γδ T cells [3] = test: BrHPP-induced amplification of γδ T cells in monkeys treated with imatinib mesylate; format: in vivo; details: BrHPP iv plus IL-2 with oral daily imatinib mesylate 15 mg/kg versus BrHPP alone; days 6 and 20
human γ9δ2 T cells = test: Combination of BrHPP and tyrosine kinase inhibitors on amplification of Vd2/Vg9 T cells in NOD SCID mice; format: in vivo; details: BrHPP 50 mg/kg i.p. day 0, IL-2 day 0 to 4, TKI from day 0 for 3 to 5 days; peritoneal lavage day 8
Method: Cell line: human PBMC whose γ9δ2 T cells percentage is higher than 0.5% and which has been previously tested for the “sensitivity test”. They were thawed one hour before injection and maintained for one hour in complete medium (RPMI 1640 supplemented with 2 mM L-glutamine, 1 mM Sodium Pyruvate (all from Gibco-BRL, Life Science, Invitrogen) and 10% heat inactivated Fetal Calf Serum (Fetal clone)) in incubator at 37° C.
• FITC anti human V82,Immunotech, ref 1464 • PerCpCy5.5 anti human CD3, Pharmingen, ref 552552 • APC anti human Vγ9 • APC Cy7 anti human CD45, Pharmingen, ref 348815 • PE anti human CD56, Pharmingen, ref 556647
Mice used included (a) NOD SCID female mice aged 8-10 weeks from Charles River Laboratories. Mice were fed and housed under sterilized conditions in Innate-Pharma's animal facility, and (b)NOD SCID female mice aged 10-12 weeks bred at Innate Pharma.
Each group contained 5 mice. Following transfer of human PBMC cells described above, the 4 groups received BrHPP (50 mg/kg, i.p.) on day 0 and IL-2 (2 M/m^2, s.c.) every day from day 0 to day 4. […] On day 8 mice were sacrificed, cells were collected by peritoneal lavage, and γ9δ2 T cell proliferation was assessed by flow cytometry.

various lung cancers = details: in vivo; cited from earlier work
[4] = test system: previously treated metastatic breast cancer; details: in vivo; cited from earlier work
[5] = test system: advanced drug refractory ovarian cancer; details: in vivo; cited from earlier work
[6] = test system: histone deacetylase (HDAC); details: cited from earlier work
[7] = phosphostim plus IL-2, iv injection

3-(bromomethyl)-3-butanol-1-yl-diphosphate [BrHPP]
γ9δ2 T cell levels return to basal level (γ9δ2 T cells; in most animals (except some treated with a high dose)): 14 days | EC50 in vivo (γ9δ2 T cells; [7]): about 60 mg/kg | dose at which a plateau seems to be reached (γ9δ2 T cells; [7]): 97 mg/kg | dose from which the effect is detected (γ9δ2 T cells; [7]): ≥ 2.4 mg/kg | PFS (progression free survival) ([1]; Patient 3 (0018), metastatic renal cell carcinoma, two cycles, 1800 mg/m^2): 72 weeks | PFS ([1]; Patient 4 (0017), colon cancer, three cycles, 1200 mg/m^2): 39 weeks | non-sensitive patients (γδ T cells [2]; of 19 CML patients undergoing imitanib mesylate treatment): One | patients with values of either ++ or +++ (responsive to BrHPP induced amplification) (γδ T cells [2]; of 19 CML patients undergoing imitanib mesylate treatment, sum of the two criteria of Table 2): 18 patients | amplification rate of Vγ9Vδ2 T cells (Vγ9Vδ2 T cells; Patient 1 (0035), colon cancer, 1500 mg/m2, within six months of Cetuximab/Irinotecan therapy): 11 × | amplification rate of Vγ9Vδ2 T cells (Vγ9Vδ2 T cells; Patient 2 (0039), colon cancer, 1500, Erbitux/Irinotecan ending within three months before): 6.4 × | amplification rate of Vγ9Vδ2 T cells (Vγ9Vδ2 T cells; Patient 3 (0018), metastatic renal cell carcinoma, 1800 mg/m^2, prior BAY 43-9006 and Avastin ending within a month before): 6.2 × | amplification rate of Vγ9Vδ2 T cells (Vγ9Vδ2 T cells; Patient 4 (0017), colon cancer, 1200 mg/m^2, Oxaliplatin/5FU/Elvorine/Vinflumine ending within three months before): 4.3 ×

Cc1ccc(NC(=O)c2ccc(CN3CCN(C)CC3)cc2)cc1Nc1nccc(-c2cccnc2)n1 [Gleevec, imatinib mesylate, reference compound]
effect on γδ T cell proliferation (percentage of γ9δ2 T cells among total cells) (γδ T cells [3]): does not significantly impair | sensitivity of T cells from Gleevec-treated CML patients to γ9δ2 T cell agonists such as BrHPP (γδ T cells [2]; 8 days culture with BrHPP): remain sensitive

CNC(=O)c1cc(Oc2ccc(NC(=O)Nc3ccc(Cl)c(C(F)(F)F)c3)cc2)ccn1 [Sorafenib, sorafenib]
effect on γδ T cell proliferation (percentage of γ9δ2 T cells among total cells) (human γ9δ2 T cells): does not impair

CC(=O)O[C@H]1C(=O)[C@@]2(C)[C@H]([C@H](OC(=O)c3ccccc3)[C@]3(O)C[C@H](OC(=O)[C@H](O)[C@@H](NC(=O)c4ccccc4)c4ccccc4)C(C)=C1C3(C)C)[C@]1(OC(C)=O)CO[C@@H]1C[C@@H]2O [taxol, Paclitaxel]
response rate (various lung cancers): 21-37% | response rate [4]: 27-62% | response rate [5]: 19-36%

O=C(CCCCC[C@@H]1NC(=O)[C@H]2CCCCN2C(=O)[C@H](Cc2ccccc2)NC(=O)[C@H](Cc2ccccc2)NC1=O)C1CO1 (some centres unmarked) [trapoxin (TPX), trapoxin] (HELM PEPTIDE1{F.F.[O=C([C@H]1CCCCN1[*:1])[*:2]].[O=C(CCCCC[C@H](N[*:1])C(=O)[*:2])C1CO1]}$PEPTIDE1,PEPTIDE1,1:R1-4:R2$$$V2.0)
concentration at which HDAC is inhibited [6]: nanomolar concentrations

CC(/C=C/C(=O)NO)=C\[C@@H](C)C(=O)c1ccc(N(C)C)cc1 [trichostatin A]
concentration at which HDAC is inhibited [6]: nanomolar concentrations
